The values below come from ChEMBL document CHEMBL3870304 (Eur J Med Chem, 2016).

A short description of test [1]: cells. As to conditions: Homo sapiens, KARPAS-299, 72 h.
Description: Cytotoxicity against human KARPAS299 cells harboring NPM-ALK assessed as reduction in cell proliferation after 72 hrs by MTT assay
Test [2] in a line: cells. As to conditions: Homo sapiens, HCC78, 72 h.
Description: Cytotoxicity against human HCC78 cells harboring SLC34A2-ROS1 assessed as reduction in cell proliferation after 72 hrs by MTT assay
Test [3] in a line: cells. To be noted: Homo sapiens, A549, 72 h.
Description: Cytotoxicity against human A549 cells assessed as reduction in cell proliferation after 72 hrs by MTT assay
Test [4] is described as follows: cells. As to conditions: Homo sapiens, NCI-H460, 72 h.
Description: Cytotoxicity against human NCI-H460 cells assessed as reduction in cell proliferation after 72 hrs by MTT assay
A short description of test [5]: cells. To be noted: Homo sapiens, HT-29, 72 h.
Description: Cytotoxicity against human HT-29 cells assessed as reduction in cell proliferation after 72 hrs by MTT assay

In general, IC50 refers to the concentration that gives 50% inhibition. Turning to `CC(C)S(=O)(=O)c1ccccc1Nc1nc(N/N=C/c2ccco2)ncc1Cl`, the IC50 stood at 750 nM in “cells [1]”; 2520 nM in “cells [2]”; 1940 nM in the test “cells [3]”; 1030 nM in “cells [4]”; 3100 nM in “cells [5]”.

`CC(C)S(=O)(=O)c1ccccc1Nc1nc(N/N=C/c2cccnc2)ncc1Cl`: the half-inhibitory concentration (IC50) in “cells [1]” turned out to be 930 nM; in “cells [2]”, 970 nM; in “cells [3]”, 1150 nM; in the test “cells [4]”, 1530 nM; in “cells [5]”, 830 nM.

Regarding `CC(C)S(=O)(=O)c1ccccc1Nc1nc(N/N=C/c2ccccc2F)ncc1Cl`, the IC50 in the test “cells [1]” is 450 nM; in “cells [2]”, 360 nM; in “cells [3]” it was above 10000 nM; in “cells [4]”, 1230 nM; in the test “cells [5]”, 1420 nM.

As to `C/C(=N\Nc1ncc(Cl)c(Nc2ccccc2S(=O)(=O)C(C)C)n1)c1ccc(F)cc1F`, the half-inhibitory concentration (IC50) in “cells [1]” was 440 nM; in the test “cells [2]”, 670 nM; in the test “cells [3]”, 1650 nM; in “cells [4]”, above 10000 nM; in the test “cells [5]” it was 2120 nM.

Take `Cc1ccc(/C=N/Nc2ncc(Cl)c(Nc3ccccc3S(=O)(=O)C(C)C)n2)cc1`: the IC50 was 1620 nM in “cells [1]”; 1730 nM in “cells [2]”; 4420 nM in the test “cells [3]”; 1650 nM in the test “cells [4]”; above 10000 nM in the test “cells [5]”.

Turning to `CC(C)S(=O)(=O)c1ccccc1Nc1nc(N/N=C/c2ccccc2Cl)ncc1Cl`, the IC50 in “cells [1]” was 5620 nM; in the test “cells [2]” it was 6300 nM; in “cells [3]”, 7900 nM; in “cells [4]”, 7120 nM; in the test “cells [5]”, above 10000 nM.

With `CC(C)S(=O)(=O)c1ccccc1Nc1nc(N/N=C/c2ccc([N+](=O)[O-])cc2)ncc1Cl`, the IC50 in “cells [1]” is 2970 nM; in “cells [2]”, 1980 nM; in “cells [3]”, 9250 nM; in “cells [4]” it was above 10000 nM; in the test “cells [5]”, 1720 nM.

Take `C/C(=N\Nc1ncc(Cl)c(Nc2ccccc2S(=O)(=O)C(C)C)n1)c1ccc(Br)cc1`: the IC50 in “cells [1]” was 2500 nM; in “cells [2]” it was 2380 nM; in the test “cells [3]”, 4840 nM; in the test “cells [4]” it was above 10000 nM; in “cells [5]” it was above 10000 nM.

For `CSc1ccc(/C=N/Nc2ncc(Cl)c(Nc3ccccc3S(=O)(=O)C(C)C)n2)cc1`, the IC50 stood at 280 nM in “cells [1]”; 210 nM in “cells [2]”; 880 nM in the test “cells [3]”; 320 nM in the test “cells [4]”; 980 nM in “cells [5]”.

For `CC(C)S(=O)(=O)c1ccccc1Nc1nc(N/N=C/c2cccs2)ncc1Cl`, the IC50 is 910 nM in the test “cells [1]”; 880 nM in the test “cells [2]”; 470 nM in “cells [3]”; 570 nM in the test “cells [4]”; 880 nM in “cells [5]”.

With `Cc1cc(Nc2ncc(Cl)c(Nc3ccccc3S(=O)(=O)C(C)C)n2)c(OC(C)C)cc1C1CCNCC1` [CERITINIB], the half-inhibitory concentration (IC50) in “cells [1]” was 27 nM; in “cells [2]” it was 18 nM; in the test “cells [3]”, above 10000 nM; in the test “cells [4]” it was above 10000 nM; in the test “cells [5]” it was above 10000 nM.

For `C/C(=N\Nc1ncc(Cl)c(Nc2ccccc2S(=O)(=O)C(C)C)n1)c1ccc(C#N)cc1`, the IC50 is 270 nM in the test “cells [1]”; 310 nM in the test “cells [2]”; above 10000 nM in the test “cells [3]”; 6840 nM in the test “cells [4]”; above 10000 nM in “cells [5]”.

With `CC(C)S(=O)(=O)c1ccccc1Nc1nc(N/N=C/c2ccccc2)ncc1Cl`, the half-inhibitory concentration (IC50) in “cells [1]” was found to be 250 nM; in “cells [2]”, 470 nM; in the test “cells [3]”, 1230 nM; in the test “cells [4]” it was 1480 nM; in “cells [5]” it was 1320 nM.

In the case of `CC(C)S(=O)(=O)c1ccccc1Nc1nc(N/N=C/c2ccc(Br)cc2)ncc1Cl`, the half-maximal inhibitory concentration (IC50) worked out at 1440 nM in the test “cells [1]”; 950 nM in the test “cells [2]”; 1310 nM in “cells [3]”; 3130 nM in “cells [4]”; 2300 nM in “cells [5]”.

With `CC(C)S(=O)(=O)c1ccccc1Nc1nc(N/N=C/c2ccncc2)ncc1Cl`, the half-maximal inhibitory concentration (IC50) in “cells [1]” is 870 nM; in the test “cells [2]”, 820 nM; in the test “cells [3]” it was 1420 nM; in the test “cells [4]”, 1130 nM; in the test “cells [5]”, 980 nM.

For the compound `COc1cc(/C=N/Nc2ncc(Cl)c(Nc3ccccc3S(=O)(=O)C(C)C)n2)cc(OC)c1OC`, the half-maximal inhibitory concentration (IC50) in “cells [1]” was determined as 20 nM; in “cells [2]”, 19 nM; in the test “cells [3]”, 1150 nM; in the test “cells [4]” it was 1230 nM; in the test “cells [5]”, 2150 nM.

In the case of `CC(C)S(=O)(=O)c1ccccc1Nc1nc(N/N=C/c2ccc(Cl)cc2)ncc1Cl`, the IC50 in “cells [1]” was determined as 1320 nM; in “cells [2]”, 1700 nM; in “cells [3]”, 2930 nM; in the test “cells [4]”, 2900 nM; in the test “cells [5]”, 8190 nM.

On to `CC(C)S(=O)(=O)c1ccccc1Nc1nc(N/N=C/c2ccc(C#N)cc2)ncc1Cl`, for which the IC50 in “cells [1]” was 340 nM; in the test “cells [2]”, 270 nM; in the test “cells [3]”, 2510 nM; in “cells [4]”, 2830 nM; in the test “cells [5]” it was 2960 nM.

`CC(C)S(=O)(=O)c1ccccc1Nc1nc(N/N=C/c2ccc(F)cc2F)ncc1Cl`: the 50% inhibitory concentration (IC50) in the test “cells [1]” is 100 nM; in the test “cells [2]”, 110 nM; in “cells [3]”, 2280 nM; in “cells [4]”, 3360 nM; in the test “cells [5]”, above 10000 nM.

In the case of `CC(C)S(=O)(=O)c1ccccc1Nc1nc(N/N=C/c2cccc(Br)c2)ncc1Cl`, the half-maximal inhibitory concentration (IC50) in “cells [1]” is 1400 nM; in “cells [2]”, 1200 nM; in “cells [3]”, 1090 nM; in “cells [4]”, above 10000 nM; in the test “cells [5]”, 1030 nM.

In the case of `CSc1ccc(/C(C)=N/Nc2ncc(Cl)c(Nc3ccccc3S(=O)(=O)C(C)C)n2)cc1`, the IC50 in the test “cells [1]” is 490 nM; in “cells [2]” it was 850 nM; in “cells [3]”, above 10000 nM; in the test “cells [4]” it was above 10000 nM; in the test “cells [5]”, 5430 nM.

On to `C/C(=N\Nc1ncc(Cl)c(Nc2ccccc2S(=O)(=O)C(C)C)n1)c1ccc(C)cc1`, for which the half-inhibitory concentration (IC50) is 2230 nM in “cells [1]”; 2840 nM in the test “cells [2]”; above 10000 nM in the test “cells [3]”; above 10000 nM in “cells [4]”; above 10000 nM in the test “cells [5]”.

With `C/C(=N\Nc1ncc(Cl)c(Nc2ccccc2S(=O)(=O)C(C)C)n1)c1ccccc1F`, the IC50 in “cells [1]” is 540 nM; in the test “cells [2]”, 600 nM; in the test “cells [3]”, above 10000 nM; in the test “cells [4]”, 7150 nM; in “cells [5]”, above 10000 nM.

`CC(C)S(=O)(=O)c1ccccc1Nc1nc(N/N=C/c2ccc(S(C)(=O)=O)cc2)ncc1Cl`: the half-inhibitory concentration (IC50) in “cells [1]” is 240 nM; in the test “cells [2]”, 310 nM; in the test “cells [3]” it was 1330 nM; in the test “cells [4]” it was 2020 nM; in “cells [5]” it was 1100 nM.

As to `COc1ccccc1/C=N/Nc1ncc(Cl)c(Nc2ccccc2S(=O)(=O)C(C)C)n1`, the IC50 is 6930 nM in the test “cells [1]”; 4160 nM in the test “cells [2]”; 7040 nM in the test “cells [3]”; above 10000 nM in “cells [4]”; above 10000 nM in the test “cells [5]”.
